According to patent US8580918B2, “Peptidic GLP-2 agonists” (Ferring B.V., priority 2009, dated 2013):
Where a SMILES comes first, the peptide text is derived from it. [ ]: non-standard residue; d: D form. dPhe(3-Cl) = N[C@H](Cc1cccc(Cl)c1)C(=O)O; d2Thi = N[C@H](Cc1cccs1)C(=O)O; d3Thi = N[C@H](Cc1ccsc1)C(=O)O; Nle = CCCC[C@H](N)C(=O)O

assay: Pharmacokinetics in rats after intravenous bolus injection (systemic clearance); type: in vivo; conditions: rat, plasma, 0.2 mg FB/kg, adult male Sprague-Dawley rats, i.v. bolus, dose 0.20 mg FB/kg, read-out: CL (ml/kg/min) Average
Outline: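 Systemic clearance from noncompartmental analysis as dose per kg over trapezoidal AUC extrapolated to infinity, mean and SD across animals. Plasma (K2EDTA) levels by LC/MS/MS after single IV jugular-vein bolus, 0.1-1.0 mg/kg, in 3-4 cannulated male Sprague-Dawley rats.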

SMILES	clearance [mL/kg/min]
CCCC[C@H](NC(=O)[C@H](CCC(=O)O)NC(=O)[C@H](CC(=O)O)NC(=O)[C@H](CO)NC(=O)[C@H](Cc1ccccc1)NC(=O)[C@H](CO)NC(=O)CNC(=O)[C@H](CC(=O)O)NC(=O)CNC(=O)[C@@H](N)Cc1c[nH]cn1)C(=O)N[C@H](Cc1ccsc1)C(=O)N[C@H](C(=O)N[C@H](C(=O)N[C@@H](CC(C)C)C(=O)N[C@@H](CC(=O)O)C(=O)N[C@@H](CC(N)=O)C(=O)N[C@@H](CC(C)C)C(=O)N[C@@H](C)C(=O)N[C@@H](C)C(=O)N[C@@H](CCCNC(=N)N)C(=O)N[C@@H](CC(=O)O)C(=O)N[C@@H](Cc1ccccc1)C(=O)N[C@H](C(=O)N[C@@H](CC(N)=O)C(=O)N[C@@H](Cc1c[nH]c2ccccc12)C(=O)N[C@@H](CC(C)C)C(=O)N[C@H](C(=O)N[C@@H](CCC(N)=O)C(=O)N[C@H](C(=O)N[C@@H](CCCCN)C(N)=O)[C@@H](C)O)[C@@H](C)CC)[C@@H](C)CC)[C@@H](C)CC)[C@@H](C)O [Compound 42, [Gly2,Nle10,D-3-Thi11] hGLP-2 (1-30)-NH2] (H-HGDGSFSDE[Nle][d3Thi]TILDNLAARDFINWLIQTK-NH2)	1.3
CCCC[C@H](NC(=O)[C@H](CCC(=O)O)NC(=O)[C@H](CC(=O)O)NC(=O)[C@H](CO)NC(=O)[C@H](Cc1ccccc1)NC(=O)[C@H](CO)NC(=O)CNC(=O)[C@H](CC(=O)O)NC(=O)CNC(=O)[C@@H](N)Cc1c[nH]cn1)C(=O)N[C@H](Cc1cccc(Cl)c1)C(=O)N[C@H](C(=O)N[C@H](C(=O)N[C@@H](CC(C)C)C(=O)N[C@@H](CC(=O)O)C(=O)N[C@@H](CC(N)=O)C(=O)N[C@@H](CC(C)C)C(=O)N[C@@H](C)C(=O)N[C@@H](C)C(=O)N[C@@H](CCCNC(=N)N)C(=O)N[C@@H](CC(=O)O)C(=O)N[C@@H](Cc1ccccc1)C(=O)N[C@H](C(=O)N[C@@H](CC(N)=O)C(=O)N[C@@H](Cc1c[nH]c2ccccc12)C(=O)N[C@@H](CC(C)C)C(=O)N[C@H](C(=O)N[C@@H](CCC(N)=O)C(=O)N[C@H](C(=O)N[C@@H](CCCCN)C(N)=O)[C@@H](C)O)[C@@H](C)CC)[C@@H](C)CC)[C@@H](C)CC)[C@@H](C)O [Compound 44, [Gly2,Nle10,D-3-Cpa11] hGLP-2 (1-30)-NH2] (H-HGDGSFSDE[Nle][dPhe(3-Cl)]TILDNLAARDFINWLIQTK-NH2)	0.32
CCCC[C@H](NC(=O)[C@H](CCC(=O)O)NC(=O)[C@H](CC(=O)O)NC(=O)[C@H](CO)NC(=O)[C@H](Cc1ccccc1)NC(=O)[C@H](CO)NC(=O)CNC(=O)[C@H](CC(=O)O)NC(=O)CNC(=O)[C@@H](N)Cc1c[nH]cn1)C(=O)N[C@H](Cc1cccs1)C(=O)N[C@H](C(=O)N[C@H](C(=O)N[C@@H](CC(C)C)C(=O)N[C@@H](CC(=O)O)C(=O)N[C@@H](CC(C)C)C(=O)N[C@@H](CC(C)C)C(=O)N[C@@H](C)C(=O)N[C@@H](C)C(=O)N[C@@H](CCCNC(=N)N)C(=O)N[C@@H](CC(=O)O)C(=O)N[C@@H](Cc1ccccc1)C(=O)N[C@H](C(=O)N[C@@H](CC(N)=O)C(=O)N[C@@H](Cc1c[nH]c2ccccc12)C(=O)N[C@@H](CC(C)C)C(=O)N[C@H](C(=O)N[C@@H](CCC(N)=O)C(=O)N[C@H](C(=O)N[C@@H](CCCCN)C(N)=O)[C@@H](C)O)[C@@H](C)CC)[C@@H](C)CC)[C@@H](C)CC)[C@@H](C)O [Compound 45, [Gly2,Nle10,D-Thi11,Leu16] hGLP-2 (1-30)-NH2] (H-HGDGSFSDE[Nle][d2Thi]TILDLLAARDFINWLIQTK-NH2)	0.33
CCCC[C@H](NC(=O)[C@H](CCC(=O)O)NC(=O)[C@H](CC(=O)O)NC(=O)[C@H](CO)NC(=O)[C@H](Cc1ccccc1)NC(=O)[C@H](CO)NC(=O)CNC(=O)[C@H](CC(=O)O)NC(=O)CNC(=O)[C@@H](N)Cc1c[nH]cn1)C(=O)N[C@H](Cc1ccccc1)C(=O)N[C@H](C(=O)N[C@H](C(=O)N[C@@H](CC(C)C)C(=O)N[C@@H](CC(=O)O)C(=O)N[C@@H](Cc1ccccc1)C(=O)N[C@@H](CC(C)C)C(=O)N[C@@H](C)C(=O)N[C@@H](C)C(=O)N[C@@H](CCCNC(=N)N)C(=O)N[C@@H](CC(=O)O)C(=O)N[C@@H](Cc1ccccc1)C(=O)N[C@H](C(=O)N[C@@H](CC(N)=O)C(=O)N[C@@H](Cc1c[nH]c2ccccc12)C(=O)N[C@@H](CC(C)C)C(=O)N[C@H](C(=O)N[C@@H](CCC(N)=O)C(=O)N[C@H](C(=O)N[C@@H](CCCCN)C(N)=O)[C@@H](C)O)[C@@H](C)CC)[C@@H](C)CC)[C@@H](C)CC)[C@@H](C)O [Compound 47, [Gly2,Nle10,D-Phe11,Phe16] hGLP-2 (1-30)-NH2] (H-HGDGSFSDE[Nle][dF]TILDFLAARDFINWLIQTK-NH2)	0.3
CCCC[C@H](NC(=O)[C@H](CCC(=O)O)NC(=O)[C@H](CC(=O)O)NC(=O)[C@H](CO)NC(=O)[C@H](Cc1ccccc1)NC(=O)[C@H](CO)NC(=O)CNC(=O)[C@H](CC(=O)O)NC(=O)CNC(=O)[C@@H](N)Cc1c[nH]cn1)C(=O)N[C@H](Cc1ccccc1)C(=O)N[C@H](C(=O)N[C@H](C(=O)N[C@@H](CC(C)C)C(=O)N[C@@H](CC(=O)O)C(=O)N[C@@H](Cc1ccc(O)cc1)C(=O)N[C@@H](CC(C)C)C(=O)N[C@@H](C)C(=O)N[C@@H](C)C(=O)N[C@@H](CCCNC(=N)N)C(=O)N[C@@H](CC(=O)O)C(=O)N[C@@H](Cc1ccccc1)C(=O)N[C@H](C(=O)N[C@@H](CC(N)=O)C(=O)N[C@@H](Cc1c[nH]c2ccccc12)C(=O)N[C@@H](CC(C)C)C(=O)N[C@H](C(=O)N[C@@H](CCC(N)=O)C(=O)N[C@H](C(=O)N[C@@H](CCCCN)C(N)=O)[C@@H](C)O)[C@@H](C)CC)[C@@H](C)CC)[C@@H](C)CC)[C@@H](C)O [Compound 49, [Gly2,Nle10,D-Phe11,Tyr16] hGLP-2 (1-30)-NH2] (H-HGDGSFSDE[Nle][dF]TILDYLAARDFINWLIQTK-NH2)	0.48
CCCC[C@H](NC(=O)[C@H](CCC(=O)O)NC(=O)[C@H](CC(=O)O)NC(=O)[C@H](CO)NC(=O)[C@H](Cc1ccccc1)NC(=O)[C@H](CO)NC(=O)CNC(=O)[C@H](CC(=O)O)NC(=O)CNC(=O)[C@@H](N)Cc1c[nH]cn1)C(=O)N[C@H](Cc1cccs1)C(=O)N[C@H](C(=O)N[C@H](C(=O)N[C@@H](CC(C)C)C(=O)N[C@@H](CC(=O)O)C(=O)N[C@@H](Cc1ccc(O)cc1)C(=O)N[C@@H](CC(C)C)C(=O)N[C@@H](C)C(=O)N[C@@H](C)C(=O)N[C@@H](CCCNC(=N)N)C(=O)N[C@@H](CC(=O)O)C(=O)N[C@@H](Cc1ccccc1)C(=O)N[C@H](C(=O)N[C@@H](CC(N)=O)C(=O)N[C@@H](Cc1c[nH]c2ccccc12)C(=O)N[C@@H](CC(C)C)C(=O)N[C@H](C(=O)N[C@@H](CCC(N)=O)C(=O)N[C@H](C(=O)N[C@@H](CCCCN)C(N)=O)[C@@H](C)O)[C@@H](C)CC)[C@@H](C)CC)[C@@H](C)CC)[C@@H](C)O [Compound 50, [Gly2,Nle10,D-Thi11,Tyr16] hGLP-2 (1-30)-NH2] (H-HGDGSFSDE[Nle][d2Thi]TILDYLAARDFINWLIQTK-NH2)	0.52

Further lines, results first:

clearance [mL/kg/min]	SMILES
0.26	CCCC[C@H](NC(=O)[C@H](CCC(=O)O)NC(=O)[C@H](CC(=O)O)NC(=O)[C@H](CO)NC(=O)[C@H](Cc1ccccc1)NC(=O)[C@H](CO)NC(=O)CNC(=O)[C@H](CC(=O)O)NC(=O)CNC(=O)[C@@H](N)Cc1cnc[nH]1)C(=O)N[C@H](Cc1cccs1)C(=O)N[C@H](C(=O)N[C@H](C(=O)N[C@@H](CC(C)C)C(=O)N[C@@H](CC(=O)O)C(=O)N[C@@H](Cc1ccccc1)C(=O)N[C@@H](CC(C)C)C(=O)N[C@@H](C)C(=O)N[C@@H](C)C(=O)N[C@@H](CCCNC(=N)N)C(=O)N[C@@H](CC(=O)O)C(=O)N[C@@H](Cc1ccccc1)C(=O)N[C@H](C(=O)N[C@@H](CC(N)=O)C(=O)N[C@@H](Cc1c[nH]c2ccccc12)C(=O)N[C@@H](CC(C)C)C(=O)N[C@H](C(=O)N[C@@H](CCC(N)=O)C(=O)N[C@H](C(=O)N[C@@H](CCCCN)C(N)=O)[C@@H](C)O)[C@@H](C)CC)[C@@H](C)CC)[C@@H](C)CC)[C@@H](C)O [Compound 46, [Gly2,Nle10,D-Thi11,Phe16] hGLP-2 (1-30)-NH2] (H-HGDGSFSDE[Nle][d2Thi]TILDFLAARDFINWLIQTK-NH2)
0.37	CCCC[C@H](NC(=O)[C@H](CCC(=O)O)NC(=O)[C@H](CC(=O)O)NC(=O)[C@H](CO)NC(=O)[C@H](Cc1ccccc1)NC(=O)[C@H](CO)NC(=O)CNC(=O)[C@H](CC(=O)O)NC(=O)CNC(=O)[C@@H](N)Cc1cnc[nH]1)C(=O)N[C@H](Cc1ccccc1)C(=O)N[C@H](C(=O)N[C@H](C(=O)N[C@@H](CC(C)C)C(=O)N[C@@H](CC(=O)O)C(=O)N[C@@H](CC(C)C)C(=O)N[C@@H](CC(C)C)C(=O)N[C@@H](C)C(=O)N[C@@H](C)C(=O)N[C@@H](CCCNC(=N)N)C(=O)N[C@@H](CC(=O)O)C(=O)N[C@@H](Cc1ccccc1)C(=O)N[C@H](C(=O)N[C@@H](CC(N)=O)C(=O)N[C@@H](Cc1c[nH]c2ccccc12)C(=O)N[C@@H](CC(C)C)C(=O)N[C@H](C(=O)N[C@@H](CCC(N)=O)C(=O)N[C@H](C(=O)N[C@@H](CCCCN)C(N)=O)[C@@H](C)O)[C@@H](C)CC)[C@@H](C)CC)[C@@H](C)CC)[C@@H](C)O [Compound 48, [Gly2,Nle10,D-Phe11,Leu16] hGLP-2 (1-30)-NH2] (H-HGDGSFSDE[Nle][dF]TILDLLAARDFINWLIQTK-NH2)
